Experimental data published in patent publication US11465998B2, “Therapeutic compounds and methods of use thereof” (Regents of the University of Minnesota, priority 2019, dated 2022).
“Also recorded” adds a separate entry of the source.

How the values were obtained:
Format in all cases: cell-based
[1] = system: RAW264.7 murine macrophages; assay: Cytokine/chemokine induction in wild-type RAW264.7 murine macrophages (multiplexed immunoassay); conditions: wild-type RAW264.7 murine macrophage cell line
Procedure: (§1) Cytokine induction by 7e and 7f was examined in murine-derived cell lines. […] The absence of activity was not due to extensive plasma protein binding by re-examining under near-serum-free conditions.
(§2) Example 5: High-throughput screens in porcine blood: Curated compound collections were obtained from the Institute for Therapeutics Discovery & Development at the University of Minnesota. Compound transfers from source (80 nL of 10 mM stocks) to assay plates were performed using an Echo 550 acoustic liquid handler (Labcyte, Sunnyvale, Calif.). For most libraries, a target final concentration of 10 μM of compound (in a final volume of 80 μL for the assay described below) was achieved. Compound plates were hermetically sealed and stored at −80° C. until used. Fresh, heparin-anticoagulated porcine blood from healthy animals were obtained under USDA supervision from Midwest Research Swine, LLC (Glencoe, Minn.). 80 μL of hematocrit-enriched porcine blood (low-speed centrifugation, followed by resuspension in DMEM supplemented with 10% fetal bovine serum) was added to compound plates and incubated for 15 h. […] NF-κB translocation was assayed spectrophotometrically using an alkaline phosphatase-specific chromogen (present in HEK-detection medium as supplied by InvivoGen) at 620 nm using a SpectraMax M4 multimode microplate reader (Molecular Devices, Sunnyvale, Calif.). […] Example 7: Human NOD1/2-specific reporter gene assays (NF-κB induction), and TLR-2/-3/-4/-5/-7/-8/-9/STING/ISG counter-screens: The induction of NF-κB was quantified using human TLR-2/-3/-4/-5/-7/-8/-9/NOD-1/NOD-2/STING/ISG-specific, rapid-throughput, liquid handler-assisted reporter gene assays as previously described by us (Wu, W. et al. J. Med. Chem. 2010, 53, 3198-3213; Shukla, N. M. et al. J. Med. Chem. 2010, 53, 4450-4465; Agnihotri, G. et al. J. Med. Chem. 2011, 54, 1490-1510 and Ukani, R. et al. Bioorg. Med. Chem. Lett. 2012, 22, 293-295). […]

[2] = system: microglial cell line derived from MAL/MyD88 double knockout Mice (NR-9904); assay: Cytokine/chemokine induction in MAL/MyD88 double-knockout cell line; conditions: MAL/MyD88 double-knockout murine cell line
Procedure: as §1, §2

[3] = system: macrophage cell line derived from TRIF/TRAM knockout mice (NR-9568); assay: Cytokine/chemokine induction in TRIF/TRAM double-knockout cell line; conditions: TRIF/TRAM double-knockout murine cell line
Procedure: as §1, §2

| Compound | induction of chemokines and proinflammatory cytokines [1] | cytokine and chemokine induction [2] | cytokine and chemokine induction [3] |
| --- | --- | --- | --- |
| CCCCCCc1nc2ccccc2n1-c1csc(C(N)=O)c1 [Compound 7f, 4-(2-Hexyl-1H-benzo[d]imidazol-1-yl)thiophene-2-carboxamide] | potently immunostimulatory; also recorded: essentially identical to that of 7e | essentially identical to that of 7e | essentially identical to that of 7e |
| CCCCCc1nc2ccccc2n1-c1csc(C(N)=O)c1 [Compound 7e, 4-(2-Pentyl-1H-benzo[d]imidazol-1-yl)thiophene-2-carboxamide] | potently immunostimulatory; also recorded: induction of chemokines and cytokines | abrogation of responsiveness | abrogation of responsiveness |
